Test results: article PMC11823630, “In vitro potentiation of tetracyclines in Pseudomonas aeruginosa by RW01, a new cyclic peptide” (Antimicrobial Agents and Chemotherapy, 2024)
Values after ≈ are worked out from the molar mass of the structure shown.

Key:
Experiment in all cases: MIC, MHB microdilution
Conditions in all cases: Pseudomonas aeruginosa, PAO1, read-out: MIC, MHB microdilution
[1] = tested on: PAO1 mutant MIN2_RW01_2, pmrB(M292T)
[2] = tested on: PAO1 mutant MIN16_4, nalC(T50P), pilM(Q62X)
[3] = tested on: PAO1 mutant MIN32_1, mexR(R63H), pilB(N349K), PA0646(V316G)

CN(C)c1ccc(O)c2c1C[C@H]1C[C@H]3[C@H](N(C)C)C(O)=C(C(N)=O)C(=O)[C@@]3(O)C(O)=C1C2=O [Minocycline, minocycline]
MIC [1]: 16 to 32 µg/mL (≈ 35 to 69.9 µM) | MIC [2]: 16 µg/mL (≈ 35 µM) | MIC [3]: 32 to 64 µg/mL (≈ 69.9 to 140 µM)
